Laboratory results: PMC5897774, “Mitotic spindle association of TACC3 requires Aurora‐A‐dependent stabilization of a cryptic α‐helix” (The EMBO Journal, 2018)
Where a chain is given by its changes, count along the chain named. Read-outs that look alike come from different tables or passages of the source. Blank lines part the entries; values can stand above or below the molecule they belong to. Residues, ends and D or L forms follow the SMILES beside them. No end group written: not given here.

Experiments:
Aurora‐A [1] = conditions: whether T288 is phosphorylated or not, ref Bayliss et al, 2003, Eyers et al, Dodson & Bayliss, 2012; cited from earlier work
Description: The activity of Aurora‐A is controlled through phosphorylation of its activation loop on T288 (Bayliss et al, 2003; Eyers et al, 2003). Like many of its other binding partners, such as TPX2, I‐2, HEF1, and N‐Myc, TACC3 is an Aurora‐A activator (Nikonova et al, 2013; Richards et al, 2016). However, only in the case of TPX2 has the mechanism of activation, and how this synergizes with phosphorylation of T288, been resolved (Bayliss et al, 2003; Eyers et al, 2003; Dodson & Bayliss, 2012).

CHC 1–574 = biological target: T1, CHC 1–574 (Homo sapiens, UniProt Q00610); assay: FP binding assay, CHC 1–574; conditions: 50 nM FAM peptide, pH 7.5, 25°C, mutant vs WT phospho-TACC3^CID
T1 construct: GST (cleaved yes); made in house
Experimental: For CHC‐TACC3 FP assays, CHC proteins were serially diluted in FP buffer (20 mM HEPES–NaOH pH 7.5, 200 mM NaCl, 5 mM DTT). FAM‐labelled TACC3 peptide was added to a final concentration of 50 nM and incubated for 30 min at room temperature to allow binding to reach equilibrium. Fluorescence polarization measurements were made using a Victor X5 plate reader (Perkin Elmer) at 25°C with excitation at 490 nm and emission at 535 nm. Data analysis was performed as described above.

Aurora‐A [2] = biological target: T2, Aurora‐A (Homo sapiens, UniProt O14965, C290A/C393A); assay: Radioactive 32P‐ATP kinase assay, MBP substrate; format: biochemical; conditions: 0.625 μM phosphorylated Aurora‐A, 5 μM TACC3^N‐ACID, 0.25 mg/ml MBP, 10 min, scintillation counting, duplicate
T2 construct: pET30TEV Aurora‐A 122–403 C290A, C393A; made in house
T2 sequence (O14965 122-403 C290A/C393A): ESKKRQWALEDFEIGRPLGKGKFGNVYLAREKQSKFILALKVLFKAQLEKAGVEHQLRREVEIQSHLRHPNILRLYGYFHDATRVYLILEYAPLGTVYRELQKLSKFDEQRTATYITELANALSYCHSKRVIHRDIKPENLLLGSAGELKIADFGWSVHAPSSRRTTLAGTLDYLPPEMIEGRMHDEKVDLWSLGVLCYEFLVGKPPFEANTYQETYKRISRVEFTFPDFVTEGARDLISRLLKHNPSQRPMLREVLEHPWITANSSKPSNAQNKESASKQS
Experimental: (§1) Figure EV2 Biochemical and structural analysis of the Aurora‐A/TACC3 complex • FP assay between FAM‐TACC3 519–570 and Aurora‐A. Reactions were performed in triplicate. Error bars represent standard deviation. […] Error bars represent standard deviation. […] This peptide was based on the location of a sulphate ion, originating from the crystallization solution, at the interface of the Aurora‐A/TACC3 interface in the crystal structure, close to TACC3 T534. […] Myelin basic protein (MBP) was used as a generic kinase substrate. Incorporation of radioisotope was measured by scintillation counting. Reactions were performed in duplicate. Error bars represent standard error. Assays were compared to the WT TACC3^N‐ACIDH6c reaction by one‐way ANOVA with Dunnett's post hoc test. […], **P < 0.01 and ****P < 0.0001. • Multiple sequence alignment of TACC3 (above) and Aurora‐A (below) orthologs spanning the interaction binding interface. Key binding residues are boxed in red. The TACC3 phosphorylation sites, S552 and S558, are boxed in blue. The TACC3 LL motif required for binding to CHC is boxed in green. The TACC3 α‐helix produced on binding to CHC is identified by a black line. TEXT PRINTED IN THE PICTURE: (A) TACC3 519-570: 3.0 ± 0.2 μM | (B) WT: 20 ± 1 μM | (B) R526A: 49 ± 2 μM | (B) phospho-T534: 14 ± 1 μM
Radioactive ^32P‐ATP kinase assays were performed as described previously (Burgess et al, 2015). In brief, 0.625 μM Aurora‐A^M3KD WT or selected mutant was incubated with 0.25 mg/ml MBP alone and in the presence of 5 μM TACC3^N‐ACID WT or mutant for 10 min. Reactions were terminated by the addition of 2% (v/v) orthophosphoric acid. Samples were spotted onto P81 Whatman paper, washed extensively with 0.2% (v/v) orthophosphoric acid and incorporation of radioisotope measured by scintillation counting.

Aurora‐A R151A = biological target: T3, Aurora‐A R151A (Homo sapiens, UniProt O14965, C290A/C393A/R151A); assay: Radioactive 32P‐ATP kinase assay, MBP substrate, Aurora‐A R151A; format: biochemical; conditions: 0.625 μM Aurora‐A R151A, 5 μM TACC3^N‐ACID, 0.25 mg/ml MBP, 10 min, scintillation counting, duplicate
T3 construct: pET30TEV Aurora‐A 122–403 C290A, C393A were produced in a similar manner; made in house
T3 sequence (O14965 122-403 R151A/C290A/C393A): T2 sequence (O14965 122-403 C290A/C393A) with R30A
Experimental: as §1, with “The TACC3 α‐helix produced on binding to CHC is identified by a black line. TEXT PRINTED IN THE PICTURE: (A) TACC3 519-570: 3.0 ± 0.2 μM | (B) WT: 20 ± 1 μM | (B) R526A: 49 ± 2 μM | (B) phospho-T534: 14 ± 1 μM” left out
Radioactive ^32P‐ATP kinase assays were performed as described previously (Burgess et al, 2015). […] Samples were spotted onto P81 Whatman paper, washed extensively with 0.2% (v/v) orthophosphoric acid and incorporation of radioisotope measured by scintillation counting.

[3] = tested on: unphosphorylated Aurora‐A KD; assay: Autophosphorylation assay of unphosphorylated Aurora‐A KD (Western blot αphospho‐T288); format: biochemical, human; conditions: unphosphorylated Aurora‐A 122–403, 1 h, room temperature
Description: (§2) Figure 2 TACC3 523–534 forms a docking interaction on the N‐lobe of Aurora‐A • Magnified view of the site 1 interaction. • Schematic showing the key features of the TACC3/Aurora‐A interface. • FP assays of binding between site 1 of TACC3 and Aurora‐A. The sequence of TACC3 present in the complex crystal structure is shown (top) with the residues of the site 1 FP peptide coloured orange and mutated residues identified by coloured circles corresponding to the curves shown in the FP assay (below). Data represent mean of three experiments ± SD. […] Data represent mean of three experiments ± SD. […] Reactions were analysed by SDS–PAGE (above) and Western blotting with an αphospho‐T288 Aurora‐A antibody (below). […] They are listed as printed.
(§3) Autophosphorylation assays were performed as for radioactive ^32P‐ATP reactions using Aurora‐A 122–403 co‐expressed with lambda phosphatase for 1 h at room temperature with His‐Aurora‐A D274N as a substrate in replace of MBP. Reactions were resolved by SDS–PAGE and subject to Western blotting using an α‐phospho‐T288 Aurora‐A antibody (CST 2914, 1:2,000) as per the manufacturer's recommendation.

[4] = tested on: Aurora‐A KD (substrate: Aurora‐A D274N); assay: Substrate phosphorylation of kinase‐dead Aurora‐A D274N by Aurora‐A KD (Western blot αphospho‐T288); format: biochemical, human; conditions: Aurora‐A D274N as substrate, 1 h, room temperature
Description: as §2, §3

Aurora‐A [5] = biological target: T2, Aurora‐A; design: method as in Burgess et al, 2015; conditions: ref Burgess et al, 2015, cited from earlier work

T1 sequence (Q00610 1-574): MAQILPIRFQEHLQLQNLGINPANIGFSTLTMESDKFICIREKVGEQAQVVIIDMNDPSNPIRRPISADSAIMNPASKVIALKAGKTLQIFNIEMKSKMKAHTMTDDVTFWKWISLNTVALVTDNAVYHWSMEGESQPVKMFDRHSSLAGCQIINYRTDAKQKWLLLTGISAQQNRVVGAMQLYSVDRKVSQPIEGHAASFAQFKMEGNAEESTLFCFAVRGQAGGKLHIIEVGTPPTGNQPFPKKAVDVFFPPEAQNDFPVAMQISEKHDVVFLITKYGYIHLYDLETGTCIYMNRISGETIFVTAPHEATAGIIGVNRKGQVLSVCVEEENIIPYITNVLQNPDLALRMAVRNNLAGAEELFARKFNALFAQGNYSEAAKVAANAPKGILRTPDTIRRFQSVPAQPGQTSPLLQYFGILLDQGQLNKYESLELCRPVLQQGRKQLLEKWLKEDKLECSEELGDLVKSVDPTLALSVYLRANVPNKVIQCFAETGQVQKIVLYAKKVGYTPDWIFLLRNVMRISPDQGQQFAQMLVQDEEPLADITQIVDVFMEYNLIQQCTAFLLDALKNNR

Molecule: TPX2 1–43: amino acids 1–43 of TPX2 (MSQVKSSYSYDAPSDFINFSSLDDEGDTQNIDSWFEEKANLEN; UniProt Q9ULW0 1-43, looked up, fragment)
stimulation of Aurora‐A activity (Aurora‐A [1]): stimulate Aurora‐A activity

factor of reduction of affinity for CHC 1–574 (CHC 1–574): 4–5 factor
Molecule: CC(C)C[C@H](NC(=O)[C@H](C)NC(=O)[C@H](CO)NC(=O)[C@H](CCC(=O)O)NC(=O)[C@H](CCCCN)NC(=O)[C@H](Cc1ccccc1)NC(=O)c1ccc2c(c1)C(=O)OC21c2ccc(O)cc2Oc2cc(O)ccc21)C(=O)N[C@@H](C)C(=O)N[C@@H](C)C(=O)N[C@@H](CCC(N)=O)C(=O)N[C@@H](COP(=O)(O)O)C(=O)N[C@@H](CC(C)C)C(=O)N[C@@H](Cc1ccc(O)cc1)C(=O)N[C@@H](CC(C)C)C(=O)N[C@@H](CCCCN)C(=O)N[C@@H](Cc1ccccc1)C(=O)N[C@@H](CC(=O)O)C(=O)N1CCC[C@H]1C(=O)N[C@@H](CC(C)C)C(=O)N[C@@H](CC(C)C)C(=O)N[C@@H](CCCNC(=N)N)C(=O)N[C@@H](CC(=O)O)C(=O)N[C@@H](CO)C(=O)O [R555A, K556A] (HELM PEPTIDE1{[O=C1OC2(c3ccc(O)cc3Oc3cc(O)ccc32)c2ccc(C(=O)[*:2])cc21].F.K.E.S.A.L.A.A.Q.[O=C([C@H](COP(=O)(O)O)N[*:1])[*:2]].L.Y.L.K.F.D.P.L.L.R.D.S}$$$$V2.0; N-terminus and C-terminus assumed)

stimulation of Aurora‐A activity (Aurora‐A [2]): eightfold
stimulation of Aurora‐A R151A activity by TACC3 (Aurora‐A R151A): reduced stimulation
Molecule: TACC3^N‐ACID: N-terminal fragment of the Aurora-A and CHC interaction domain of TACC3, aa519–563 (ELKEESFRDPAEVLGTGAEVDYLEQFGTSSFKESALRKQSLYLKF; not fully specified)
Aurora‐A autophosphorylation on T288 [3]: stimulated
substrate phosphorylation on T288 (Aurora‐A D274N) [4]: stimulated
Kd (Aurora‐A [5]; microscale thermophoresis and NMR, read-out: K d measured by MST and NMR): 6 to 8 µM
Kd (Aurora‐A [5]; previous data, effect of F525A mutation, read-out: K d of the interaction): 5.7 µM
